The values below come from patent publication US10300048B2, “Thiazolidinones as cellular anandamide uptake inhibitors and their use in the treatment of psychiatric or neurological disorders and inflammation, in particular neuroinflammation” (UNIVERSITAT BERN, priority 2014, dated 2019).

Like-named read-outs stand apart in the source and are kept apart here. Some results are limits rather than exact numbers.

As usually defined, the IC50 is the concentration that inhibits the measured activity by half. As usually defined, the Ki is a dissociation constant, usually derived from enzyme kinetics or from competition with a known ligand.

The test system of experiment [1] is AEA cellular uptake, U937 cells. Put plainly: [3H]-AEA cellular uptake inhibition in U937 cells. Type of experiment: cell-based. To be noted: U937 cells. As to the method: [^3H]-AEA Cellular Uptake
Screening for AEA cellular uptake inhibition was performed in a semi-automated procedure: Pipetting and washing steps were performed by a Biomek3000 laboratory workstation. First, required amounts of U937 cells were centrifuged at 100×g for 5 min and resuspended in RPMI (37° C.) to a final concentration of 2×10^6 cells/mL. Then, 250 μL of cell suspension (0.5×10^6 cells per sample) were transferred into AquaSil™ silanized glass vials (Chromacol 1.1-MTV) in 96-well format. After addition of 5 μL vehicle (DMSO) or compounds the cells were incubated at 37° C. for 15 min. As positive controls OMDM-2 and UCM707 were used at 10 μM in each run. The ETI-T compounds were measured at up to 7 concentrations in triplicates from 100 pM-100 μM. After pre-incubation, a mixture of 0.5 nM[ethanolamine-1-^3H]-AEA, (60 Ci/mmol) and 99.5 nM of cold AEA (final 100 nM) was added and samples were incubated at 37° C. for another 15 min. The reaction was stopped by rapid filtration over UniFilter-96 GF/C filters (PerkinElmer) pre-soaked with PBS 0.25% BSA. Cells were washed three times with 100 μL ice-cold PBS buffer containing 1% fatty acid free BSA. After drying, 45 μL MicroScint 20 scintillation cocktail (PerkinElmer, Waltham, Mass., US) was added to the wells and the plate was sealed. Radioactivity was measured by liquid scintillation counting on a PerkinElmer Wallac Trilux MicroBeta 1450 during 2 min. Non-specific binding of [^3H]AEA (100 nM) to the glass vials was never higher than 10%. IC50 values were calculated by GraphPad® by non-linear regression using the built-in log(inhibitor) vs. response-variable slope (four parameters) function.
(§1) Statistical analysis and IC50 values were determined using GraphPad® Prism 5.0 (GraphPad® Software, San Diego, Calif., US). Inhibition curves were obtained by non-linear regression using the built-in log(inhibitor) vs. response-variable slope (four parameters) function. Results were calculated as % of vehicle control of the corresponding fraction (cells, aqueous phase) if not mentioned else. In vivo results are shown in absolute values and were analyzed by a one-way ANOVA following a Tukey's multiple comparison test or student's t-test. If not indicated else the results were compared vs. vehicle (CTRL). *** P<0.001, ** P<0.01, * P<0.05, ns=not significant P>0.05.

Experiment [2] deals with CB1 receptor. To be noted: literature values of reference substances; cited from earlier work.
Experiment [3] deals with FAAH (Homo sapiens (Human), UniProt O00519). In words: FAAH activity: hydrolysis of [3H]-AEA in U937 cell homogenates. The format is biochemical. To be noted: U937 cell homogenate, read-out: FAAH inhibition IC50. The procedure: Hydrolysis of [^3H]-AEA by FAAH was determined as previously described in cell homogenates of U937 cells (0.18 mg protein) (Omeir et al., 1999, Biochem Biophys Res Commun, 264, 316-20; Mor et al., 2004, J Med Chem, 47, 4998-5008). Protein amounts of cell homogenates corresponded to 0.5×10^6 cells (U937), to assure best possible comparability of IC50 values as used for the AEA cellular uptake assays. URB597 was used as positive control. Protein quantification was performed using a BCA assay (Thermo Scientific). Enzyme activity was assessed by addition of vehicle or compounds in 10 μL DMSO to 490 μL homogenate in 10 mM Tris HCl, 1 mM EDTA, 0.1% (w/v) BSA fatty acid free, pH=8 and incubation for 15 min at 37° C. After, a mixture of AEA plus [ethanolamine-1-^3H]-AEA (0.5 nM) at final 100 nM was added to the homogenates and incubated for 15 min at 37° C. The reaction was stopped by addition of 1 mL ice-cold CHCl3:MeOH (1:1) followed by vigorous vortexing. Phase separation was achieved by centrifugation at 10′000×g at 4° C. for 10 min. Radioactivity of the separated aqueous phase (upper phase) containing [^3H-ethanolamine] or [^3H-glycerol] was measured by liquid scintillation counting on a Tri-Carb 2100 TR liquid scintillation analyzer after addition of 3.5 mL Ultima Gold scintillation cocktail (PerkinElmer Life Sciences). Results are expressed as hydrolysis of tritium substrate in percent of vehicle treated control. IC50 values were calculated by GraphPad®. Data are reported as means of n=3 independent experiments performed in triplicates.
as §1

In experiment [4] the target is hCB1 receptor (Homo sapiens (Human), UniProt P21554). Put plainly: Radioligand CB receptor binding, [3H]-CP55,940 displacement on CHO-K1 hCB1 membranes. To be noted: for CB1 receptor binding (%) at 10 µM: Table 4. As to the method:
Stably transfected CHO-K1 cells expressing hCB1 or hCB2 receptors (Gertsch et al., 2008, Proc Natl Acad Sci 105, 9099-104) were cultured in T150 cm^2 flasks up to 90% confluence. The medium was removed and cells were washed twice with PBS, 37° C. 10 mL of PBS was added and the cells were scraped and transferred into a falcon tube following homogenization by a Polytron PT1300D for 5 min at 30 krpm. Then, the homogenate was centrifuged (1400×g, 5 min) to remove debris. The supernatant was subjected to ultracentrifugation (64000×g, 45 min, 4° C.) to separate cytosolic from the membrane fraction. The supernatant was discharged and the pellet resuspended in PBS by sonication. Protein quantity was determined by BCA assay (Thermo Scientific) and aliquots of 500 μL were stored at −80° C. until use.
Radioligand CB Receptor Binding
Binding properties of ETI-T compounds to hCB1 or hCB2 receptors were performed as previously reported in a [^3H]-CP55,940 displacement assay (Gertsch et al., 2008, Proc Natl Acad Sci 105, 9099-104). WIN 55,212-2 was used as positive control. In brief, 20 μg protein of CHO-K1 hCB1 or hCB2 membrane preparations were thawed on ice and resuspended in a final volume of 500 μL binding buffer (50 mM Tris-HCl, 2.5 mM EDTA, 5 mM MgCl2, 0.5% fatty acid free BSA, pH 7.4) in silanized glass vials. [^3H]-CP55,940 (168 Ci/mmol) (PerkinElmer, Waltham, Mass., US) was added to a final concentration of 0.5 nM followed by the addition of competitors or vehicle in 5 μL DMSO. Membrane binding was equilibrated for 2 h at room temperature (25° C.). Samples were filter through a 0.1% polyethylenimine pre-soaked UniFilter®-96 GF/B plate (PerkinElmer) and washed twelve times with 167 μL ice-cold assay-buffer. The plate was dried, bottom sealed and 45 μL MicroScint 20 scintillation cocktail (PerkinElmer) were added before measured on a PerkinElmer 1450 Microbeta TRILUX liquid scintillation counter. Unspecific binding was determined by WIN 55,212-2, 10 μM and subtracted from all values. […].

The mark [5] stands for this setting: Homo sapiens, U-937, Table 1, 100 nM AEA, read-out: AEA uptake inhibition IC50.
Setting [6] is: Homo sapiens, U-937, Table 4, read-out: AEA uptake IC50.

Chain of FAAH (O00519 whole entry): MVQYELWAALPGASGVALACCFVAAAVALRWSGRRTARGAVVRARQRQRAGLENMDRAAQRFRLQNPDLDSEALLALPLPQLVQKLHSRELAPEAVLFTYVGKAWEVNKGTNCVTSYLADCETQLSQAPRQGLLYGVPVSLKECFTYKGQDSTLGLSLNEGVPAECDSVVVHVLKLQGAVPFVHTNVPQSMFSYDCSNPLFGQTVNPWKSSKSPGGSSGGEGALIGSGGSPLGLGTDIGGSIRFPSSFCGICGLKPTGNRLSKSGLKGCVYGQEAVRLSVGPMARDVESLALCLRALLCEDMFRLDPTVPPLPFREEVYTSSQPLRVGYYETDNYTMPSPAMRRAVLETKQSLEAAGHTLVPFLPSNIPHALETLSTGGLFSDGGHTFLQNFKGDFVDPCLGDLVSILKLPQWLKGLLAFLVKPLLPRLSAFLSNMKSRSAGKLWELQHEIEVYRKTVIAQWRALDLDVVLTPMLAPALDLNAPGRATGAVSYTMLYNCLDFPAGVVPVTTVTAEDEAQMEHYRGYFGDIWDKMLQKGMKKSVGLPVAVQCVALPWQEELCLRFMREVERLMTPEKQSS
Chain of hCB1 receptor (P21554 whole entry): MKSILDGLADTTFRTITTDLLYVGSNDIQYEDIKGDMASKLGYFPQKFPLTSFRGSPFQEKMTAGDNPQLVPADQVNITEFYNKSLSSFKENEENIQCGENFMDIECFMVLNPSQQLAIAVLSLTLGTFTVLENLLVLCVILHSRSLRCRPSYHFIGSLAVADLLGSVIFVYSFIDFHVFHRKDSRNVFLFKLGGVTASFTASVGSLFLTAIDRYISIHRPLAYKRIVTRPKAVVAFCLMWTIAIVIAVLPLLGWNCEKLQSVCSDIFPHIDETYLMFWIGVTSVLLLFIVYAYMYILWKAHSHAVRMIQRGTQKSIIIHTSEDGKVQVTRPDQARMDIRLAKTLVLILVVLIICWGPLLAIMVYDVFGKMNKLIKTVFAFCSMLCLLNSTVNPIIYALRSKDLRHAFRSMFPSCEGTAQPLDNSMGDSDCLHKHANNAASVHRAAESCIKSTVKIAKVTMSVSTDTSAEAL

For `CCCCCCCC/C=C\CCCCCCCC(=O)N[C@@H](CO)c1ccc(O)cc1` [OMDM-2, (R)—N-(1-(4-hydroxyphenyl)-2-hydroxyethyl)oleamide, reference compound], the IC50 in experiment [1] (setting [5]) was determined as 3900 nM. Also, in experiment [2], the Ki is 5100 nM.

Consider `C=CCc1cc(/C=C2\S/C(=N\c3ccc(C(=O)OC)cc3)N(C)C2=O)cc(OCC)c1O` [Compound 16], for which the IC50 in experiment [1] (setting [5]) is 571 nM; in experiment [1] (setting [6]), 571 nM; in experiment [3] (Table 2) it was greater than 100000 nM. In experiment [4] (Table 3), the “CB1 receptor binding % binding at 10 μM” value was 15%. The compound also gave a CB1 receptor binding (%) at 10 µM in experiment [4] of 15%.

With `C/C=C/c1cc(/C=C2\S/C(=N\c3ccccc3)N(CCOC)C2=O)cc(OCC)c1O` [Compound 22], the figures for the IC50 in experiment [1] (setting [5]), in experiment [1] (setting [6]) and in experiment [3] (Table 4) were 899 nM, 899 nM and greater than 100000 nM, respectively. The compound also came in with a CB1 receptor binding (%) at 10 µM in experiment [4] of 34%.

As to `CCCN1C(=O)/C(=C/c2ccc(N(C)C)cc2)S/C1=N\c1ccccc1` [Compound 10], the results for the IC50 in experiment [1] (setting [5]), in experiment [1] (setting [6]) and in experiment [3] (Table 4) were 355 nM, 355 nM and 1050 nM, respectively. The CB1 receptor binding (%) at 10 µM in experiment [4] worked out at 29%.

As for `CCCCC/C=C\C/C=C\C/C=C\C/C=C\CCCC(=O)NCc1ccoc1` [UCM707, N-(3-furanylmethyl)-(5Z,8Z,11Z,14Z)-eicosatetraenamide, reference compound], the IC50 in experiment [1] (Table 1, 100 nM AEA, read-out: AEA uptake inhibition IC50) is 1900 nM; in experiment [3] (Table 2) it was 8300 nM. In addition, the Ki in experiment [2] is greater than 1000 nM.
